Patent US11173139B2, “Method for extending lifespan delaying the onset of age-related disease” (priority 2004, dated 2021)

Legend:
[1] = 21 diabetic patients, 100 mg to 1,000 mg (2-10 mg/kg); cited from earlier work
[2] = mouse, in vivo
[3] = system: C57Bl/6 mice; assay: Lifespan and health of C57Bl/6 mice fed oxaloacetate; type: in vivo; conditions: 0.4% in food by weight, at the 21st month of life, still continuing
[4] = system: Drosophila melanogaster (Vestigal type); assay: D. melanogaster lifespan with oxaloacetate in fly food; type: in vivo; conditions: Example 4, 16 mM in water wetting the fly food, vs control
Excerpt: The fruit fly Drosophila melanogaster (Vestigal type, from Carolina Biological Supply) was used as a test organism to assess the addition of oxaloacetate therapy (from Sigma Aldrich Company) applied to the cells to extend lifespan and to act as a caloric restriction “mimic”. The fruit fly is more complex than C. elegans, but the metabolic pathways that involve calorie restriction are a basic building block of life, and are conserved throughout the animal kingdom. […] A small amount of yeast was added on top of the fly food. […] The flies were kept in a room receiving reflected natural sunlight at a temperature of 21° C. Each of the flies used emerged from the pupae state within 8 hours of each other. The day the flies were moved to the test vials was designated “day 0”, reflecting the emergence of the fly into adulthood. The flies were kept out of direct sunlight and were raised at a temperature of 21° C. The food vials were prepared every 3 to 4 days and the flies transferred to prevent infestation of mites and other pathogenic microbial organisms. The vials with the flies were counted every day to determine the number of dead vs. living. Flies were scored as dead when they no longer respond to a gentle prodding with a probe. Lifespan is defined as the time elapsed from when the flies enter into adulthood (lifespan=0) to when they are scored as dead. […]

[5] = in vivo; cited from earlier work
[6] = system: liver tissue gene expression; assay: Liver gene expression, Affymatrix Mouse Genome 430 2.0 Array, oxaloacetate and CR mice versus control mice; type: in vivo, C57Bl/6 mice; conditions: for common genes changed in same direction as calorie restriction: of the 363 common genes
Excerpt: Three mice of each of the three groups of the C57Bl/6 mice of Example 6 were sacrificed after 21 weeks. […] Because each group was a pooling of three mice, there are a variety of individual responses. Changes in the physical results of the group (such as weight loss, increase in health span, and increase in life span) are due to genes expressed in common by the group, not in individual variation. Thus it is important to look at the genes that changed in expression from the control group, but are commonly expressed between the calorie restricted group and the oxaloacetate supplemented group.

[7] = system: C. elegans (N2 wild type); assay: C. elegans lifespan on oxaloacetate-containing nematode growth agar; type: in vivo, Caenorhabditis elegans
Experimental: A similar set of eight control plates with the same nematode growth agar was also prepared. […] In addition, five “starter plates” were made using nematode growth agar and no 5′flurodeoxyuridine. All plates were streaked with 0.5 ml bacteria Luria broth containing E. coli as a food source for the nematodes. The bacteria were allowed to grow on the plates for several days at 37° C. prior to adding C. elegans. Ten C. elegans nematodes were transferred to each of five “starter plates” and were left on the plates for 12 hours to lay eggs. The C. elegans were then removed and the eggs were allowed to grow into young adults for two days. Ten nematodes were then transferred to each control plate and oxaloacetate plate by “picking” worms with a microprobe from the starter plate and moving it onto the target test plates. The day after the starter plates have been started with the 10 C. elegans was designated “day 0”, and was the estimated time of birth. The C. elegans were kept out of direct sunlight and were raised at a temperature of 21° C. The plates with the C. elegans were counted every day to determine the number of dead nematodes. Nematodes were scored as dead when they no longer respond to a gentle prodding with a probe. Lifespan is defined as the time elapsed from when the nematodes are hatched (lifespan=0) to when they are scored as dead. Nematodes that crawl off the plates or are otherwise lost during the assay have been excluded from calculations. The dead nematodes were removed from the plates each day with microprobe. The total population is the sum of all found dead worms. The counting of the nematodes was continued until all nematodes were dead. The data was then charted and is represented in FIG. 2. […] The highest increase in lifespan was at 16 mM (approximate 25%) for the concentrations tested, and the lowest increase was a 2 mM (approximately 10%). […] Splitomycin is a selective inhibitor for the Sir2 gene (Sir2a in yeast, Sirt1 in humnans).

[8] = system: Drosophila melanogaster; assay: D. melanogaster lifespan under stress (food vials not changed, microbial pathogens); type: in vivo; conditions: Example 5, flies under stress
Excerpt: It is well known in the literature that calorie restricted animals survive stress better than the control animals fed an ad libitum diet. The data from the experiment were charted and are represented in FIG. 5.

[9] = Weight gain of older (9 month) C57Bl/6 mice fed oxaloacetate; type: in vivo, C57Bl/6 type male mice; conditions: 0.4% oxaloacetate in the food, eating freely, 9 month old mice
Excerpt: C57Bl/6 type male mice approximately 9 months of age were obtained from Harlan, San Diego, Calif. as retired breeders. These mice were all born on the same day. The C57Bl/6 type mouse is inbred to reduce the genetic variation between individuals. The mice were housed in individual cages and were provided with ad libitum amounts of fortified food pellets (Kadee). The amount of food consumed was weighed daily, while the mice were weighed weekly. After two weeks, a baseline of the average food consumed by the mice was established at 7.1 grams per mouse per day. In addition, after an overnight fast, blood glucose readings for each mouse were recorded for each mouse. […] Male C57Bl/6 type mice, when allowed to eat freely, gain weight with age in a linear fashion. The mice were weighed weekly for 21 weeks, and the individual weights were recorded and averaged to form a “group average” for each of the three groups.

[10] = system: Sir2 or SIRT1; conditions: cited from earlier work
[11] = count of genes among those shown to change commonly

Compound: O=C(O)CC(=O)C(=O)O [oxaloacetate]
- side effects [1]: no negative side effects
- toxicity [2]: negative toxicity
- increase in lifespan over control group [3]: ≥ 10%
- increase in average lifespan [4]: 20%
- LD50 [5]: above 5 g/kg of body weight
- percentage of common changed genes moving in same direction as calorie restriction ([6]; 363 common genes, liver, Table 1): 98%
- Gene Movement in Same Direction?, Cyp2b9 ([6]; Affymatrix No. 3985, OX versus CR, both to control): YES
- Gene Movement in Same Direction?, similar to cytochrome P450 2B4-rat (LOC232993) ([6]; Affymatrix No. 17655, OX versus CR, both to control): YES
- Percentage of Genes Moving in Same Direction as Calorie Restricted Mice ([6]; Table 2, 1.7 fold cut off): 100.0%
- Mice Fed Oxaloacetate with Genes Moving in Opposite Direction as Calorie Restricted Mice [6, 11]: 7
- Mice Fed Oxaloacetate with Genes Moving in Same Direction as Calorie Restricted Mice [6, 11]: 356
- Percentage of Mice Fed Oxaloacetate with Genes Moving in Same Direction as Calorie Restricted Mice ([6]; genes shown to change commonly): 98.1%
- common genes changed in same direction as calorie restriction ([6]; liver): 357 genes
- common genes changed in same direction as calorie restriction ([6]; liver, listed as Oxaloacetate): 356 genes
- genes with measurable change in expression versus control ([6]; pooled liver of three mice, 21 weeks): 765 genes
- genes changed in common with calorie restricted mice versus control ([6]; pooled liver, 21 weeks): 363 genes
- increase in maximal life span ([7]; Example 1, 16 mM in nematode growth agar, vs control plates): 40%
- increase in average lifespan ([7]; Example 1, 16 mM in nematode growth agar, vs control plates, 21° C.): 23.6%
- increase in lifespan ([7]; Example 2, 2 mM in agar (lowest increase)): approximately 10%
- increase in lifespan ([7]; Example 2, 16 mM in agar (highest increase)): ~25%
- maximal increase in lifespan [8]: 30%
- less weight gained than control group [9]: 20%

Compound: O=C1CCc2c(ccc3ccccc23)O1 [splitomycin, reference compound]
- lifespan compared with control group ([7]; Example 3, FIG. 3, inhibited Sir2 function, no oxaloacetate): lived for shorter periods than the control group

Compound: CC=O [acetaldehyde]
- activity of beneficial genes [10]: did not see any increase in the activity of beneficial genes
